{"source": "paper PMC7835349", "about": "(Communications Biology, 2021)", "assay": "Tumour pharmacokinetics (released and total AZD4320) in RS4;11 tumours", "assay_type": "in vivo, C.B-17 SCID mouse", "from_the_text": "For tumour measurements, tumours were harvested, split into smaller pieces and snap frozen in liquid nitrogen. Frozen tumour samples were subsequently weighed and then homogenised for both ‘released’ and ‘total’ AZD4320. For ‘released’ AZD4320, samples were homogenised on ice with an equal volume (w/v) of blank plasma containing 0.2 M citric acid. The samples were then processed according to the aforementioned plasma approach. For ‘total’ AZD4320, samples were homogenised with an equal volume of plasma (w/v) and then processed according to the aforementioned ‘total’ approach.\nSample analyses were performed in batches containing study samples, calibration standards at 10 concentration levels, QC samples at three concentration levels in duplicate and blank samples. The analytical run acceptance criteria for calibration standards and QC samples was that at least 75% of back-calculated concentrations for calibration standards and at least 2/3 of the QC samples (at least 50% at each concentration level) should be within ±20% (±25% at LLOQ) from nominal value.\nFemale C.B.−17 SCID mice were purchased from Charles River Laboratories. Mice were 5–8 weeks old at the time of tumour implantation. All xenograft studies were conducted at our Association for the Assessment and Accreditation of Laboratory Animal Care accredited facility in Waltham, MA in accordance with ethical regulations described in the guidelines established by the internal Institutional Animal Care and Use Committee. The dendrimer conjugates were formulated in citrate/phosphate buffer pH 5.0, diluted 1:10 with 5% glucose containing 1% w/v Kolliphor HS15, and AZD4320 was formulated in 30% HP-β-CD and dosed as a weekly intravenous (IV) administration at a volume of 5 ml/kg at the indicated doses. Five million RS4;11, five million SUDHL-4 or five million OCI-LY-10 cells were injected subcutaneously in the right flank of mice in a volume of 0.1 ml. Tumour volumes (measured by caliper), animal body weight, and tumor condition were recorded twice weekly for the duration of the study. The tumour volume was calculated (taking length to be the longest diameter across the tumour and width to be the corresponding perpendicular diameter) using the formula: length (mm) x width (mm)^2/0.52. For efficacy studies, mice were randomized based on tumour volumes using stratified sampling and enrolled into control and treatment groups. Tumour growth inhibition from the start of treatment was quantified by measuring the difference in tumour volume between control and treated groups. Survival analysis was evaluated using Mantel-Cox test. Tumours were also taken for bioanalysis.", "note": "Several values for one entry are separate records, joined by “and”; a condition that tells them apart may be missing. Identical values can stand only once.", "data": [{"compound": "CN(CCO)CCC(CSc1ccccc1)Nc1ccc(S(=O)(=O)NC(=O)c2ccc(N3CCC(C(O)c4ccccc4-c4ccc(Cl)cc4)CC3)cc2)cc1S(=O)(=O)C(F)(F)F", "note": "(centres unmarked) [AZD4320]", "values": [{"measurement": "Tumor PK Released AZD4320, individual tumours", "setting": "RS4;11, single dose 10 mg/kg or equivalent, 0.5 h, 10 mg/kg", "result": 910, "unit": "ng/g"}, {"measurement": "Tumor PK Released AZD4320, individual tumours", "setting": "RS4;11, single dose 10 mg/kg or equivalent, 1 h, 10 mg/kg", "result": 813, "unit": "ng/g"}, {"measurement": "Tumor PK Released AZD4320, individual tumours", "setting": "RS4;11, single dose 10 mg/kg or equivalent, 5 h, 10 mg/kg", "result": "1290 ng/g and 307 ng/g"}, {"measurement": "Tumor PK Released AZD4320, individual tumours", "setting": "RS4;11, single dose 10 mg/kg or equivalent, 24 h, 10 mg/kg", "result": 232, "unit": "ng/g"}, {"measurement": "time of maximum (released) AZD4320 concentration in tumour", "setting": "RS4;11 tumours, 10 mg/kg or equivalent", "result": "≤ 0.5", "unit": "h"}, {"measurement": "concentration at 0.5 h", "setting": "female, C.B-17 SCID, mouse, tumour (RS4;11 xenograft), intravenous, 10 mg/kg, RS4;11, single dose 10 mg/kg or equivalent, 0.5 h, read-out: Tumor PK released AZD4320, individual tumours", "result": 1360, "unit": "ng/g"}, {"measurement": "concentration at 1 h", "setting": "female, C.B-17 SCID, mouse, tumour (RS4;11 xenograft), intravenous, 10 mg/kg, RS4;11, single dose 10 mg/kg or equivalent, 1 h, read-out: Tumor PK released AZD4320, individual tumours", "result": 1220, "unit": "ng/g"}, {"measurement": "concentration at 24 h", "setting": "female, C.B-17 SCID, mouse, tumour (RS4;11 xenograft), intravenous, 10 mg/kg, RS4;11, single dose 10 mg/kg or equivalent, 24 h, read-out: Tumor PK released AZD4320, individual tumours", "result": 359, "unit": "ng/g"}]}]}
